Measured values published in ChEMBL document CHEMBL1135919, “Synthesis of photoreactive phosphatidic acid analogues displaying activatory properties on cyclic AMP-phosphodiesterases. Photoaffinity labeling of an isoform of phosphodiesterase” (J Med Chem, 2002).

These compounds were tested against T1, 3',5'-cyclic-AMP phosphodiesterase 4D (Rattus norvegicus, UniProt P14270) (assay: Activation of PDE4D3 (phosphodiesterase).).
T1 sequence (P14270 whole entry): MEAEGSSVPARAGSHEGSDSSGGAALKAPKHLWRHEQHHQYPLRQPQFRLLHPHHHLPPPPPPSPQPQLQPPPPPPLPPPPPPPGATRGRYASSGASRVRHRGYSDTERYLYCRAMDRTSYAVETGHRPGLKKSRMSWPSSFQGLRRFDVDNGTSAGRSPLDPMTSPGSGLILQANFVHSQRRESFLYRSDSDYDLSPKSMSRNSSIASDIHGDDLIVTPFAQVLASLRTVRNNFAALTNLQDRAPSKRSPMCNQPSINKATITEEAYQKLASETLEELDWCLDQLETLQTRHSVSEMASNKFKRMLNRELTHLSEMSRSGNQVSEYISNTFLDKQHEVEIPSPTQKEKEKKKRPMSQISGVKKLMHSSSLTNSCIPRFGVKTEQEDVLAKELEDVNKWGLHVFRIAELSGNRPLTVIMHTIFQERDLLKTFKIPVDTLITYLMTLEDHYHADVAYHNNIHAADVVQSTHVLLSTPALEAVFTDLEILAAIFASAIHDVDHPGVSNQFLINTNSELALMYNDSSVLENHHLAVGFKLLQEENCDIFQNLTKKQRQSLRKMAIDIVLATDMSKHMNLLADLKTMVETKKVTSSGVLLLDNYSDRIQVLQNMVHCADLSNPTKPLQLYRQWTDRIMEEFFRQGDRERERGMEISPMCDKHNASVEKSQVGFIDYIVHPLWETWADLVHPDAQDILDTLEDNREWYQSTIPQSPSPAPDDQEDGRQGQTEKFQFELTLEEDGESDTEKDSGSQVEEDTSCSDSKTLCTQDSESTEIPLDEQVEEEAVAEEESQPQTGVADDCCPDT
Type: functional

`CCCCCCCC/C=C/CCCCCCCC(=O)OCC(COP(=O)(O)O)OC(=O)CCCCCCCCCCCNC(=O)c1c(F)c(F)c(N=[N+]=[N-])c(F)c1F` (stereo not drawn) and `CCCCCCCC/C=C/CCCCCCCC(=O)OC(COC(=O)CCCCCCCCCCCNC(=O)c1c(F)c(F)c(N=[N+]=[N-])c(F)c1F)COP(=O)(O)O` (stereo not drawn) are the same in EC50: 23.5 µM for the first, 23.5 µM for the second.

Work on `CCCCCCCCCCCCCCCC(=O)OCC(COP(=O)(O)O)OC(=O)CCCCCCCCCCCNC(=O)c1c(F)c(F)c(N=[N+]=[N-])c(F)c1F` (stereo not drawn) yielded an EC50 of 24.2 µM.
